Test [1] has as its system PC12. Kind of test: Activation of Nrf2-ARE pathway in rat PC-12 cells assessed as increase in HO-1 expression level at 2.5 to 10 uM incubated for 6 hrs by Western blot analysis. It counts as cell-based. Particulars: filed as activator, dose 2.5-10 µM. Background: A western blot detects proteins with antibodies after separation by electrophoresis.
The target in test [2] is T1, Glycogen synthase kinase-3 beta (Homo sapiens, UniProt P49841). In words: Inhibition of human GSK-3beta overexpressed in human HEK293T cells assessed as reduction in GSK-3beta expression level at 0.625 to 10 uM incubated for 24 hrs by Western blot analysis. Format: cell-based. Particulars: dose 0.625-10 µM.
T1 sequence (P49841 whole entry, looked up): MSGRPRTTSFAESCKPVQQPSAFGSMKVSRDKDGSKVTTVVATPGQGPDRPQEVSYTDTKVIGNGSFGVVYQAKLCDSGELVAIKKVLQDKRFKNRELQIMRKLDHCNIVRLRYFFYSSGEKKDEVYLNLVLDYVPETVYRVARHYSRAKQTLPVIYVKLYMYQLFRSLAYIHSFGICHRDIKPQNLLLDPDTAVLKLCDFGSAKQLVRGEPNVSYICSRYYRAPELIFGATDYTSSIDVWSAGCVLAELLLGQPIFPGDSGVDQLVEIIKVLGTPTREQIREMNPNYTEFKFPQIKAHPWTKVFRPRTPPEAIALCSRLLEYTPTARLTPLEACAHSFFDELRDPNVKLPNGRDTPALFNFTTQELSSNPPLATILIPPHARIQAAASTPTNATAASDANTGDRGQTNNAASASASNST
Test [3] has as its system PC-12. In words: Anti-apoptotic activity against H2O2-induced apoptosis in rat PC12 cells assessed as early apoptotic cells at 10 uM preincubated for 12 hrs followed by replacement with fresh media and H2O2 stimulation for 12 hrs by Annexin-V/7-AAD staining based flow cytometry (Rvb=0.8%). Format: functional. In general terms: In flow cytometry, cells or beads pass a laser one at a time.

Test [4] has as its system PC-12. Kind of test: Neuroprotective activity against rat PC12 cells assessed as decrease in H2O2-induced intracellular ROS production at 2.5 to 10 uM preincubated for 12 hrs followed by replacement with fresh media and H2O2 stimulation for 12 hrs by DCFH-DA staining based flow cytometry. Format: functional, cell-based. The following applies: dose 2.5-10 µM.
Test [5] deals with PC-12. Kind of test: Anti-apoptotic activity against H2O2-induced apoptosis in rat PC12 cells assessed as dead cells at 2.5 uM preincubated for 12 hrs followed by replacement with fresh media and H2O2 stimulation for 12 hrs by Annexin-V/7-AAD staining based flow cytometry (Rvb=4.1%). It counts as functional.
Test [6] deals with PC-12. In words: Neuroprotective activity against rat PC12 cells assessed as decrease in H2O2-induced mitochondrial membrane potential level at 5 uM preincubated for 12 hrs followed by replacement with fresh media and H2O2 stimulation for 12 hrs by JC-1 dye based flow cytometry (Rvb= 95.3%). Format: functional. On the set-up: scale not given: the % may be the effect or the level left.

The target of test [7] is T1, Glycogen synthase kinase-3 beta. In words: Inhibition of human GSK-3beta overexpressed in human HEK293T cells assessed as decrease in Tau phosphorylation at t205 at 0.625 to 10 uM incubated for 24 hrs by Western blot analysis. Format: cell-based. Particulars: dose 0.625-10 µM.
In test [8] the test system is PC-12. In words: Anti-apoptotic activity against H2O2-induced apoptosis in rat PC12 cells assessed as living cells at 10 uM preincubated for 12 hrs followed by replacement with fresh media and H2O2 stimulation for 12 hrs by Annexin-V/7-AAD staining based flow cytometry (Rvb=92.9%). It counts as functional.
Test [9] concerns PC-12. In words: Anti-apoptotic activity against H2O2-induced apoptosis in rat PC12 cells assessed as late apoptotic cells at 5 uM preincubated for 12 hrs followed by replacement with fresh media and H2O2 stimulation for 12 hrs by Annexin-V/7-AAD staining based flow cytometry (Rvb=2.2 %). It counts as functional.
The subject of test [10] is PC-12. Kind of test: Neuroprotective activity against rat PC12 cells assessed as decrease in H2O2-induced mitochondrial membrane potential level at 2.5 uM preincubated for 12 hrs followed by replacement with fresh media and H2O2 stimulation for 12 hrs by JC-1 dye based flow cytometry (Rvb= 95.3%). It counts as functional. On the set-up: scale not given: the % may be the effect or the level left.

In test [11] the test system is PC12. Kind of test: Activation of Nrf2-ARE pathway in rat PC-12 cells assessed as increase in NQO1 expression level at 2.5 to 10 uM incubated for 12 hrs by Western blot analysis. Format: cell-based. Particulars: filed as activator, dose 2.5-10 µM.
The test system of test [12] is PC-12. Kind of test: Neuroprotective activity against rat PC12 cells assessed as decrease in H2O2-induced intracellular Ca2+ level at 10 uM preincubated for 12 hrs followed by replacement with fresh media and H2O2 stimulation for 12 hrs by Fluo-3 AM based flow cytometry relative to control. Format: functional. The arrangement: scale not given: the % may be the effect or the level left.

The subject of test [13] is PC12. In words: Activation of Nrf2-ARE pathway in rat PC-12 cells assessed as increase in Nrf2 expression level at 2.5 to 10 uM incubated for 12 hrs by Western blot analysis. It counts as cell-based. Particulars: filed as activator, dose 2.5-10 µM.

Here are results for one compound from ChEMBL document CHEMBL5370539, “Oxazole-4-carboxamide/butylated hydroxytoluene hybrids with GSK-3β inhibitory and neuroprotective activities against Alzheimer's disease” (Eur J Med Chem, 2023).

As to `COc1ccc(-c2ocnc2C(=O)NCCCc2ccc(NC(=O)/C=C/c3cc(C(C)(C)C)c(O)c(C(C)(C)C)c3)cc2)cc1Cl`, the Activity result is “Dose-Dependent Effect” in test [1]; 2% in test [3]; “Dose-Dependent Effect” in [4]; 1.3% in [5]; 72.6% in test [6]; 90.7% in [8]. The Activity is 12.9% in test [9]; 68.4% in [10]; “Dose-Dependent Effect” in test [11]; 31.1% in test [12]; “Dose-Dependent Effect” in test [13]. Moreover, the inhibition entry in test [2] and in [7] was “Dose-Dependent Effect” in each case.
